Test results: patent US10781467B2, “3-epimerase and polynucleotide encoding same” (priority 2016, dated 2020)

Experiments:
3-epimerase [1] = test: Metal dependence of 3-epimerase; type: biochemical, Thermogemmatispora carboxidivorans; conditions: 1 mM metal ion; for Relative activity (%): EDTA-treated 3-epimerase 0.04 U/mL, 10% (w/v) fructose, Tris pH 7.5, 60° C., 20 minutes, None = 100; for effect of metal ion on enzyme activity: fructose as substrate
Procedure: In the current experimental examples, the enzyme activity is measured using fructose and sorbose as substrates. […] The sodium phosphate buffer solution containing fructose or sorbose is prepared by dissolving fructose or sorbose in a sodium phosphate buffer solution pH 7-8 to give a concentration of 60-70% (w/v). The sodium phosphate buffer solution containing fructose or sorbose is continuously added to a bioreactor maintained at 60° C. For the purpose of facilitating the comparison of enzyme activities, one unit of allulose-3-epimerase is defined as an amount of allulose-3-epimerase required to produce […] of D-allulose per minute at pH 7.5 and 60° C.; and one unit of tagatose-3-epimerase is defined as an amount of tagatose-3-epimerase required to produce […] of D-tagatose per minute at pH 7.5 and 60° C. The concentrations of fructose, D-allulose, sorbose, and D-tagatose are determined by high performance liquid chromatography with a BP-100 calcium ion […] column and an RI detector. The column temperature is 80° C., and the mobile phase is ultrapure water with a flow rate of 0.5 mL/min. In Example 3, in order to investigate the effect of metal ions on the 3-epimerase, the effect on the activity of 3-epimerase was measured with fructose as a substrate in the presence of various metal ions. The measurement was carried out by treating 3-epimerase with EDTA, and then adding 1 mM of various metal ions shown in Table 1 below to the 3-epimerase solution. The reaction catalyzed by 3-epimerase was carried out in a 50 mM Tris buffer pH 7.5 at 60° C. for 20 minutes, where the Tris buffer contained 0.04 U/mL 3-epimerase and 10% (w/v) fructose. The reaction solution was further heated at 100° C. for 15 minutes to terminate the reaction, and then the activity of the 3-epimerase was measured.

3-epimerase [2] = test: Specificity of 3-epimerase for substrate; type: biochemical, Thermogemmatispora carboxidivorans; conditions: for 3-epimerase activity for substrate: 10 mM monosaccharide; for Relative activity (%): 0.04 U/ml 3-epimerase, 10 mM monosaccharide as substrate, pH 7.5, 60° C., 20 minutes
Procedure: In the current experimental examples, the enzyme activity is measured using fructose and sorbose as substrates. In order to measure the enzyme activity, 3-epimerase is mixed with 50 mM sodium phosphate buffer solution (pH 7.5) containing 10% fructose or sorbose, reacted at 60° C. for 20 minutes, and then heated at 100° C. for 15 minutes to terminate the reaction. The sodium phosphate buffer solution containing fructose or sorbose is prepared by dissolving fructose or sorbose in a sodium phosphate buffer solution pH 7-8 to give a concentration of 60-70% (w/v). The sodium phosphate buffer solution containing fructose or sorbose is continuously added to a bioreactor maintained at 60° C. For the purpose of facilitating the comparison of enzyme activities, one unit of allulose-3-epimerase is defined as an amount of allulose-3-epimerase required to produce […] of D-allulose per minute at pH 7.5 and 60° C.; and one unit of tagatose-3-epimerase is defined as an amount of tagatose-3-epimerase required to produce […] of D-tagatose per minute at pH 7.5 and 60° C. The concentrations of fructose, D-allulose, sorbose, and D-tagatose are determined by high performance liquid chromatography with a BP-100 calcium ion […] column and an RI detector. The column temperature is 80° C., and the mobile phase is ultrapure water with a flow rate of 0.5 mL/min.
The reaction catalyzed by 3-epimerase was carried out in a 50 mM sodium phosphate buffer solution pH 7.5 at 60° C. for 20 minutes, where the sodium phosphate buffer solution contained 0.04 U/ml 3-epimerase and 10 mM of various individual monosaccharides shown in Table 2 below. Each reaction solution was heated at 100° C. for 15 minutes to terminate the reaction, and then the enzyme activity of the 3-epimerase in each reaction solution was measured.

[3] = in humans; cited from earlier work

Row | SMILES | Relative activity (%) (3-epimerase [1]) | effect of metal ion on enzyme activity (3-epimerase [1]) | 3-epimerase activity for substrate (3-epimerase [2]) | Relative activity (%) (3-epimerase [2]) | absorption rate [3]
1 | [Ca+2] [Ca^2+] | 65% | – | – | – | –
2 | [Co+2] [Co^2+] | 170% | enhance the enzyme activity | – | – | –
3 | [Cu+2] [Cu^2+] | 0% | inhibit the enzyme activity | – | – | –
4 | O=C(CO)[C@H](O)[C@H](O)[C@H](O)CO [D-allulose, D-ribo-2-hexulose] | – | – | active | 100% | –
5 | O=C(CO)[C@@H](O)[C@@H](O)[C@H](O)CO [D-tagatose] | – | – | active | 40.7% | 20 to 25%
6 | O=C(CO)[C@@H](O)[C@H](O)[C@H](O)CO [Fructose, D-fructose] | – | – | active | 63.9% | –
7 | O=C(CO)[C@H](O)[C@@H](O)[C@H](O)CO [Sorbose, D-sorbose] | – | – | active | 21% | –

Now from value to compound, other results behind:

Row | Relative activity (%) (3-epimerase [1]) | effect of metal ion on enzyme activity (3-epimerase [1]) | SMILES | 3-epimerase activity for substrate (3-epimerase [2]) | Relative activity (%) (3-epimerase [2]) | absorption rate [3]
8 | 113% | – | [K+] [K^+] | – | – | –
9 | 130% | enhance the enzyme activity | [Mg+2] [Mg^2+] | – | – | –
10 | 168% | enhance the enzyme activity | [Mn+2] [Mn^2+] | – | – | –
11 | 120% | – | [Na+] [Na^+] | – | – | –
12 | 0% | inhibit the enzyme activity | [Zn+2] [Zn^2+] | – | – | –
